Experimental findings from patent US12319675B2 (Artax Biopharma Inc., priority 2018, dated 2025) are described below.

A short description of data set [1]: Microsomal stability assay, rat. As to conditions: rat microsomes, read-out: Microsomal Stability (T1/2 min) Rat. The format is in vitro ADME. As to the method: (§1) Microsomal stability assays were performed using mouse, rat, and human […] according to methods well-known in the art. Microsomal stability results are shown in Table 2 for selected compounds of the invention. The compound numbers correspond to the compound numbers in Table 1. […] “N/A” indicates not assayed.

Data set [2] in a line: Microsomal stability assay, mouse. The format is in vitro ADME. As to conditions: mouse microsomes, read-out: Microsomal Stability (T1/2 min) Mouse. As to the method: as §1
Data set [3] concerns CD3 mediated phosphorylation of ZAP70 in Jurkat cells. In words: CD3 mediated phosphorylation of ZAP70 in Jurkat cells (HTRF). The format is cell-based. The conditions noted are these: Homo sapiens, Jurkat cells stimulated with 20 μg/mL anti-CD3 antibody; for Emax: maximum inhibition, read-out: pZAP70 Inhibition - Maximum Percent Inhibition (% Inhibition); for IC50: read-out: pZAP70 Inhibition IC50. On the procedure: Inhibition of CD3 mediated phosphorylation of ZAP70 in Jurkat cells was measured by a cellular based Homogeneous Time-Resolved Fluorescence (HTRF) assay utilizing a Total ZAP-70 HTRF kit.
Briefly, Jurkat cells (˜1.3×10^6 cells/mL) were harvested on the day of experimentation. Cells were washed with PBS and resuspended in Assay Buffer (RPMI 1640 media plus 10% FBS) and counted.
Jurkat cells were seeded in Assay media at a total volume of 4 μL/well (40K cells/well) in a 384-low volume white flat bottom plate. The cells were then incubated at 37° C./5% CO2 for 30 minutes. The cells were then treated in duplicate with test compounds (3×) and reference compounds (3×) in a total volume of 4 μL, respectively. A compound dilution scheme is exemplified in FIG. 1.
The plate was then transferred to an incubator maintained at 37° C./5% CO2 for 2 minutes. Following incubation, cells were stimulated with 20 μg/mL of anti-CD3 antibody (1 mg/mL stock) and assay media was used to bring the total well volume 4 μL/well. The plate was then transferred to the incubator maintained at 37° C./5% CO2 for 2.5 minutes. Following incubation, 4 μL of lysis buffer (4×) provided in the kit was added to each well. The plate was then incubated at RT for 1 hour with gentle shaking. Following incubation, 4 μL of detection mix was added to each well and the plate was sealed with a plate sealer and left overnight at RT in the dark.
The Envision reader was set-up for Eu^3+ cryptate and fluorescence emission was read at two different wavelengths (620 nm and 665 nm). • Excitation filter: UV2(TRF) 320 nm • Emission filter: 665 nm • 2nd Emission filter: Europium 615 nm • Measurement height (mm): 6.5 • Excitation light (%): 100 • Delay (μs): 50 • Window time (μs): 400 • Time between flashes (μs): 2000 • Number of flashes: 100 • Number of flashes for 2nd detector: 100
The data is represented by the signal form the two wavelengths:
The ratio of the signal is calculated for each individual well:
The data was plotted using Graph Pad Prism. The significance between untreated vs. treated groups was assessed by One-way ANOVA and Bonferroni posttest comparing all columns in the graph.
ZAP70 IC50 results are shown in Table 6 for select compounds of the invention. The compound numbers correspond to the compound numbers in Table 1. […] “ND” indicates not determined.
ZAP70 percent maximum inhibition results are shown in Table 7 for select compounds of the invention. The compound numbers correspond to the compound numbers in Table 1.
On the technique in general: Time-resolved FRET reads energy transfer from a long-lived donor to a nearby acceptor.

Data set [4] is described as follows: Microsomal stability assay, human. The format is in vitro ADME. The conditions noted are these: human microsomes, read-out: Microsomal Stability (T1/2 min) Human. As to the method:
as §1

A word on the IC50: it is the concentration that inhibits the measured activity by half. For `O=c1[nH]c(CCOc2ccc3c(c2)C(c2ccc(F)cc2)=C(CN2CCCC2)CO3)no1` [Compound I-37, 3-(2-((4-(4-fluorophenyl)-3-(pyrrolidin-1-ylmethyl)-2H-chromen-6-yl)oxy)ethyl)-1,2,4-oxadiazol-5(2H)-one], the results for the half-life in data set [1], in data set [2] and in data set [4] were 10 to 30 min, greater than 30 min and greater than 30 min, respectively. The Emax in data set [3] was in the range of 30 to 40%. The IC50 in data set [3] was in the range of 0.001 to 0.01 µM.
For the compound `O=C(C1=C(c2ccc(F)cc2)c2cc(F)ccc2OC1)N1CCCC1` [Compound I-62], in data set [3], the Emax was in the range of 30 to 40% and the half-inhibitory concentration (IC50) was in the range of 0.001 to 0.01 µM.
For `CN1CCN(CC2=C(c3ccc(F)cc3)c3cc(F)ccc3OC2)CC1` [Compound I-59, 1-((6-fluoro-4-(4-fluorophenyl)-2H-chromen-3-yl)methyl)-4-methylpiperazine], the half-life in data set [1] was less than 10 min; in data set [2], 10 to 30 min; in data set [4], greater than 30 min. Further, in data set [3], the Emax was 30 to 40%. In addition, in data set [3], the IC50 was less than 0.001 µM.
Taken in the same sequence, the figures for `CN1CCN(CCOc2ccc3c(c2)C(c2ccc(F)cc2)=C(C(=O)N2CCCC2)CO3)CC1` [Compound I-43] were greater than 30 min, less than 10 min, less than 10 min, 30 to 40% and 0.01 to 0.05 µM.
Taken in the same sequence, the figures for `Fc1ccc(C2=C(CN3CCCC3)COc3ccc(OCCc4nnn[nH]4)cc32)cc1` [Compound I-34, 5-(2-((4-(4-fluorophenyl)-3-(pyrrolidin-1-ylmethyl)-2H-chromen-6-yl)oxy)ethyl)-1H-tetrazole] were greater than 30 min, greater than 30 min, greater than 30 min, 30 to 40% and less than 0.001 µM.
Regarding `CN(C)CCNCC1=C(c2ccc(C(F)(F)F)cc2)c2cc(OCCC(=O)O)ccc2OC1` [Compound I-70], in data set [3], the Emax lay within 40 to 50% and the IC50 is 0.001 to 0.01 µM.
Consider `CN1CCN(C(=O)C2=C(c3ccc(F)cc3)c3cc(F)ccc3OC2)CC1` [Compound I-58, (6-fluoro-4-(4-fluorophenyl)-2H-chromen-3-yl)(4-methylpiperazin-1-yl)methanone], for which the half-life was less than 10 min in data set [1], less than 10 min in data set [2] and greater than 30 min in data set [4]. The Emax in data set [3] was in the range of 30 to 40%. In addition, in data set [3], the IC50 was greater than 0.05 µM.
On to `CN1CCN(C(=O)C2=C(c3ccc(F)cc3)c3cc(OC4CC4)ccc3OC2)CC1` [Compound I-27], for which the half-life in data set [1], in data set [2] and in data set [4] was less than 10 min in each case. For the same compound, in data set [3], the Emax was no more than 30%. Besides, in data set [3], the IC50 was greater than 0.05 µM.
On to `CC(C)(COc1ccc2c(c1)C(c1ccc(C(F)(F)F)cc1)=C(CN1CCOCC1)CO2)C(=O)O` [Compound I-79], for which, in data set [3], the Emax is greater than 50% and the half-maximal inhibitory concentration (IC50) was 0.001 to 0.01 µM.
For the compound `O=C(C1=C(c2ccc(F)cc2)c2cc(OC(F)(F)F)ccc2OC1)N1CCCC1` [Compound I-7], the half-life is less than 10 min in data set [1], less than 10 min in data set [2] and 10 to 30 min in data set [4].
For `Fc1ccc(C2=C(CN3CCCC3)COc3ccc(F)cc32)cc1` [Compound I-63, 1-((6-fluoro-4-(4-fluorophenyl)-2H-chromen-3-yl)methyl)pyrrolidine], the results for the half-life in data set [1], in data set [2] and in data set [4] were less than 10 min, 10 to 30 min and greater than 30 min, respectively. In addition, the Emax in data set [3] lay within 30 to 40%. The IC50 in data set [3] is 0.001 to 0.01 µM.
The corresponding values for `N/C(CCOc1ccc2c(c1)C(c1ccc(F)cc1)=C(CN1CCCC1)CO2)=N\O` [Compound I-36, 3-((4-(4-fluorophenyl)-3-(pyrrolidin-1-ylmethyl)-2H-chromen-6-yl)oxy)-N-hydroxypropanimidamide] are 10 to 30 min, 10 to 30 min, greater than 30 min, 40 to 50% and less than 0.001 µM.
The corresponding values for `Fc1ccc(C2=C(CN3CCCC3)COc3ccc(OCCN4CCCCC4)cc32)cc1` [Compound I-39, 1-(2-((4-(4-fluorophenyl)-3-(pyrrolidin-1-ylmethyl)-2H-chromen-6-yl)oxy)ethyl)piperidine] are greater than 30 min, greater than 30 min, greater than 30 min, no more than 30% and 0.001 to 0.01 µM.
Regarding `CC(C)(COc1ccc2c(c1)C(c1ccc(F)cc1)=C(CN1CCOCC1)CO2)C(=O)O` [Compound I-80], in data set [3], the Emax was greater than 50% and the IC50 lay in the range of 0.001 to 0.01 µM.
With `O=C(C1=C(c2ccc(F)cc2)c2cc(OCCN3CCCCC3)ccc2OC1)N1CCCC1` [Compound I-41], the half-life in data set [1] was greater than 30 min; in data set [2] it was greater than 30 min; in data set [4] it was less than 10 min. Also, the Emax in data set [3] lay within 30 to 40%. The half-inhibitory concentration (IC50) in data set [3] lay within 0.001 to 0.01 µM.
With `CN1CCN(CC2=C(c3ccc(F)cc3)c3cc(OC(F)(F)F)ccc3OC2)CC1` [Compound I-11, 1-((4-(4-fluorophenyl)-6-(trifluoromethoxy)-2H-chromen-3-yl)methyl)-4-methylpiperazine], the half-life in data set [1], in data set [2] and in data set [4] was greater than 30 min in each case. In addition, the Emax in data set [3] is no more than 30%. The IC50 in data set [3] lay within 0.001 to 0.01 µM.
As to `CC(C)(COc1ccc2c(c1)C(c1ccc(F)cc1)=C(CN1CCCC1)CO2)C(=O)O` [Compound I-66], in data set [3], the Emax was greater than 50% and the IC50 lay within 0.001 to 0.01 µM.
On to `CN1CCN(CC2=C(c3ccc(F)cc3)c3cc(OCCC(=O)O)ccc3OC2)CC1` [Compound I-64], for which, in data set [3], the Emax lay in the range of 30 to 40% and the IC50 lay in the range of 0.001 to 0.01 µM.
The corresponding values for `CN1CCN(CC2=C(c3ccc(C(F)(F)F)cc3)c3cc(OCCC(=O)O)ccc3OC2)CC1` [Compound I-69] are greater than 50% and 0.001 to 0.01 µM.
On to `O=C(O)CCOc1ccc2c(c1)C(c1ccc(C(F)(F)F)cc1)=C(CN1CCCC1)CO2` [Compound I-68], for which, in data set [3], the Emax is greater than 50% and the concentration for half-maximal inhibition (IC50) is less than 0.001 µM.
Regarding `CC(C)(O)CCOc1ccc2c(c1)C(c1ccc(F)cc1)=C(C(=O)N1CCCC1)CO2` [Compound I-42, (4-(4-fluorophenyl)-6-(3-hydroxy-3-methylbutoxy)-2H-chromen-3-yl)(pyrrolidin-1-yl)methanone], the half-life in data set [1] is 10 to 30 min; in data set [2], less than 10 min; in data set [4] it was less than 10 min. Moreover, the Emax in data set [3] is no more than 30%. Further, the IC50 in data set [3] is greater than 0.05 µM.
Turning to `CC(C)(O)CCOc1ccc2c(c1)C(c1ccc(F)cc1)=C(CN1CCCC1)CO2` [Compound I-35, 4-((4-(4-fluorophenyl)-3-(pyrrolidin-1-ylmethyl)-2H-chromen-6-yl)oxy)-2-methylbutan-2-ol], the half-life was less than 10 min in data set [1], 10 to 30 min in data set [2] and greater than 30 min in data set [4]. Moreover, in data set [3], the Emax is no more than 30%. Further, the IC50 in data set [3] lay within 0.001 to 0.01 µM.
Consider `O=C(O)CCCOc1ccc2c(c1)C(c1ccc(F)cc1)=C(CN1CCCC1)CO2` [Compound I-67], for which, in data set [3], the Emax is greater than 50% and the IC50 was 0.01 to 0.05 µM.
With `CN(C)CCNCC1=C(c2ccc(F)cc2)c2cc(F)ccc2OC1` [Compound I-61, N′-((6-fluoro-4-(4-fluorophenyl)-2H-chromen-3-yl)methyl)-N^2,N^2-dimethylethane-1,2-diamine], the half-life was less than 10 min in data set [1], less than 10 min in data set [2] and 10 to 30 min in data set [4]. Further, the Emax in data set [3] was 40 to 50%. Also, the IC50 in data set [3] lay within 0.001 to 0.01 µM.
As for `CC(C)(COc1ccc2c(c1)C(c1ccc(C(F)(F)F)cc1)=C(CN1CCCC1)CO2)C(=O)O` [Compound I-81], in data set [3], the Emax was greater than 50% and the IC50 lay in the range of 0.001 to 0.01 µM.
